10 molecules from US3983239A, “Hexahydro-γ-carboline derivatives and their salts” (priority 1974, dated 1976) can be followed below.

Broadly, the ED50 is the dose at which the effect has come halfway, by size or by number of responders. By LD50 is commonly meant the dose at which mortality reaches 50%.

Structures are written as SMILES. Read-outs that look alike come from different tables or passages of the source.

Data set [1] has as its system self-stimulation. In words: Inhibiting activity of self-stimulation, rats. In kind it is in vivo. Conditions: Rattus norvegicus, po, read-out: ED50 value, inhibiting activity of self-stimulation. The text has this:
8) J. Olds et al; J. Comp. Physiol. Psychol., Vol. 47, page

The subject of data set [2] is muscle relaxant activity. In words: Muscle relaxant activity, rats. In kind it is in vivo. The settings on record: Rattus norvegicus, read-out: ED50 value, muscle relaxant activity.
Data set [3] deals with conditioned avoidance response. The data set is described as follows: Inhibiting activity of conditioned avoidance response, rats (Shuttle box method). The format is in vivo. Conditions: Rattus norvegicus, po, read-out: ED50 value, inhibiting activity of conditioned avoidance response.
Data set [4] can be described thus: Acute toxicity, mice. Conditions: mouse, in vivo; for LD50 at 96 h: observed 4 days. The text has this: (§1) Male and female STD-dd Y mice, weighing 20 to 22 g (each group: 10 mice) and male Wistar HLA rats, weighing 250 to 300 g (each group: 10 to 20 rats) were used.
The subject of data set [5] is conditioned avoidance response. The data set is described as follows: Inhibiting activity of conditioned avoidance response, mice. In kind it is in vivo. Conditions: Mus musculus, po, read-out: ED50 value, inhibiting activity of conditioned avoidance response.
The test system of data set [6] is catalepsy. In words: Cataleptogenic activity, rats. In kind it is in vivo. The settings on record: Rattus norvegicus, po, read-out: ED50 value, cataleptogenic activity.
Text: The compounds of the present invention show the same central nervous system depressing pattern as the existing neuroleptics, such as an inhibiting activity of locomotion, an inhibiting activity of conditioned avoidance response, a cataleptogenic activity, a muscle relaxant activity, an inhibiting activity of self-stimulation, and an anti-methamphetamine activity in terms of locomotor activity.
For data set [7], the system named is locomotion. The data set is described as follows: Inhibiting activity of locomotion, rats (Open-field method). In kind it is in vivo. The settings on record: Rattus norvegicus, read-out: ED50 value, inhibiting activity of locomotion. The text has this: 3) Open-field method [C.S. Hall; J. Comp. Physiol. Psychol.
The subject of data set [8] is locomotion. In words: Inhibiting activity of locomotion, mice (Animex method). In kind it is in vivo. Conditions: Mus musculus, po, read-out: ED50 value, inhibiting activity of locomotion.
Data set [9] relates to methamphetamine-induced stereotypy. In words: Potentiation of methamphetamine-induced stereotypy. In kind it is in vivo, male Wistar HLA rats. The arrangement: key: ---: Marked antagonism; --: Moderate antagonism; -: Slight antagonism; 0: No interaction; +: Slight potentiation; ++: Moderate potentiation; +++: Marked potentiation. The settings on record: methamphetamine 2 mg/kg i.p. The method, then: 1. Potentiation of methamphetamine-induced stereotypy
This test was carried out by a modified method of R. T. Naylor (Life Sci., Vol. 10, page 909, 1971).
To male Wistar HLA rats, weighing 200 to 250 g (each group: 6 rats), were intraperitoneally administered the compounds to be tested. After 20 minutes, methamphetamine (2 mg/kg) was intraperitoneally administered to the test animals, and then the appeared stereotypy was observed. The effects of the test compounds were evaluated by the intensity of the stereotypy and the termination thereof.

Data set [10] in a line: Acute toxicity, rats. The settings on record: rat, in vivo, male, observed 4 days.
Text: as §1

With `CN(C)CCCN1c2ccccc2Sc2ccc(Cl)cc21` [Chlorpromazine], the ED50 in data set [1] came out at 7.04 mg/kg; in data set [2] (ip), 2.07 mg/kg; in data set [2] (po), 4.38 mg/kg; in data set [3] it was 7.04 mg/kg; in data set [5], 5.65 mg/kg; in data set [6], 16.1 mg/kg. Also, the results for the median effective dose (ED50) in [7] (ip), in data set [7] (po) and in [8] were 2.41 mg/kg, 9.88 mg/kg and 6.34 mg/kg, respectively. Moreover, the 50% lethal dose (LD50) at 168 h in [4] (po, male, observed 7 days) worked out at 476 mg/kg. Besides, the entries for the “Stereotypy Intensity” value in data set [9] (2.0 mg/kg i.p.), in data set [9] (5.0 mg/kg i.p.) and in [9] (10.0 mg/kg i.p.) were 0, “--” and “---”, respectively. Moreover, the “Stereotypy Termination” value is listed as 0 in data set [9] (2.0 mg/kg i.p.), “+” in data set [9] (5.0 mg/kg i.p.) and “---” in data set [9] (10.0 mg/kg i.p.).
Regarding `CCc1ccc2c(c1)C1CN(CCCC(=O)c3ccc(F)cc3)CCC1N2.Cl.Cl` (stereo not shown) [B, 8-Ethyl-2-[γ-(p-fluorobenzoyl)propyl]-2,3,4,4a,5,9b-hexahydro-1H-pyrido[4,3-b]indole dihydrochloride], the “Stereotypy Intensity” value in data set [9] (2.0 mg/kg i.p.) is “+”; in data set [9] (5.0 mg/kg i.p.), “+++”; in data set [9] (10.0 mg/kg i.p.), “+++”. The “Stereotypy Termination” value in [9] (2.0 mg/kg i.p.) is “+”; in [9] (5.0 mg/kg i.p.) it was “+++”; in data set [9] (10.0 mg/kg i.p.), “+++”.
In the case of `Cc1ccc2[nH]c3c(c2c1)CN(CCCC(=O)c1ccc(F)cc1)CC3.Cl` [compound 1, 8-Methyl-2-[γ-(p-fluorobenzoyl)propyl]-2,3,4,5-tetrahydro-1H-pyrido[4,3-b]indole hydrochloride], the “Stereotypy Intensity” value in data set [9] (1.0 mg/kg i.p.), in data set [9] (2.0 mg/kg i.p.), in data set [9] (5.0 mg/kg i.p.) and in data set [9] (10.0 mg/kg i.p.) was 0 each time. Further, the “Stereotypy Termination” value in data set [9] (1.0 mg/kg i.p.), in data set [9] (2.0 mg/kg i.p.), in [9] (5.0 mg/kg i.p.) and in [9] (10.0 mg/kg i.p.) was 0 in each case.
`CCN1c2ccc(C)cc2C2CN(CCCC(=O)c3ccc(F)cc3)CCC21.Cl.Cl` (stereo not shown) [D, 5-Ethyl-8-methyl-2-[γ-(p-fluorobenzoyl)propyl]-2,3,4,4a,5,9b-hexahydro-1H-pyrido[4,3-b]indole dihydrochloride]: the “Stereotypy Intensity” value in [9] (1.0 mg/kg i.p.) is 0; in data set [9] (2.0 mg/kg i.p.) it was 0; in data set [9] (5.0 mg/kg i.p.) it was “+”; in data set [9] (10.0 mg/kg i.p.), “+++”. The “Stereotypy Termination” value in [9] (1.0 mg/kg i.p.) is reported as 0; in data set [9] (2.0 mg/kg i.p.), 0; in data set [9] (5.0 mg/kg i.p.), “++”; in [9] (10.0 mg/kg i.p.), “+++”.
On to `CN1CCN(C2=Nc3cc(Cl)ccc3Nc3ccccc32)CC1` [Clozapine, 8-chloro-11-(4-methyl-1-piperazinyl)-5H-dibenzo[b,e][1,4]-diazepine], for which the ED50 was 61.8 mg/kg in data set [1] (rats, p.o.); 5.41 mg/kg in data set [2] (ip, rats, i.p.); 28.1 mg/kg in data set [2] (po, rats, p.o.); 34.7 mg/kg in data set [3] (rats, p.o.); 9.75 mg/kg in data set [5] (mice, p.o.); above 100 mg/kg in data set [6] (rats, p.o.). Moreover, the ED50 was found to be 5.54 mg/kg in [7] (ip, rats, i.p.); 27.4 mg/kg in data set [7] (po, rats, p.o.); 7.5 mg/kg in [8] (mice, p.o.). In addition, the LD50 at 96 h was 37 mg/kg in data set [4] (iv, male); 212 mg/kg in [4] (po, female); 202 mg/kg in data set [4] (po, male); 194 mg/kg in data set [4] (sc, male); 42 mg/kg in data set [10] (iv); 251 mg/kg in [10] (po). For the same molecule, in data set [10] (sc), the median lethal dose (LD50) at 96 h came out at 272 mg/kg.
Consider `Cc1ccc2c(c1)C1CN(CCCC(=O)c3ccc(F)cc3)CCC1N2C.Cl.Cl` (stereo not shown) [C, 5,8-Dimethyl-2-[γ-(p-fluorobenzoyl)propyl]-2,3,4,4a,5,9b-hexahydro-1H-pyrido[4,3-b]indole dihydrochloride], for which the “Stereotypy Intensity” value in [9] (1.0 mg/kg i.p.) is on record as 0; in [9] (2.0 mg/kg i.p.) it was 0; in data set [9] (5.0 mg/kg i.p.), “++”; in data set [9] (10.0 mg/kg i.p.), “++”. Also, the “Stereotypy Termination” value in data set [9] (1.0 mg/kg i.p.) is given as 0; in [9] (2.0 mg/kg i.p.), 0; in data set [9] (5.0 mg/kg i.p.), “++”; in data set [9] (10.0 mg/kg i.p.) it was “+++”.
Take `Cl.Cl.O=C(CCCN1CCC2Nc3ccc(F)cc3C2C1)c1ccc(F)cc1` (stereo not shown) [compound 3, 8-Fluoro-2-[γ-(p-fluorobenzoyl)propyl]-2,3,4,4a,5,9b-hexahydro-1H-pyrido[4,3-b]indole dihydrochloride]: the “Stereotypy Intensity” value in data set [9] (1.0 mg/kg i.p.) is reported as 0; in data set [9] (2.0 mg/kg i.p.), 0; in [9] (5.0 mg/kg i.p.), “-”; in [9] (10.0 mg/kg i.p.) it was “--”. Moreover, the “Stereotypy Termination” value is 0 in data set [9] (1.0 mg/kg i.p.), 0 in [9] (2.0 mg/kg i.p.), “-” in data set [9] (5.0 mg/kg i.p.) and “--” in [9] (10.0 mg/kg i.p.).
As to `COc1ccc2c(c1)C1CN(CCCC(=O)c3ccc(F)cc3)CCC1N2.Cl.Cl` (stereo not shown) [compound 4, 8-Methoxy-2-[γ-(p-fluorobenzoyl)propyl]-2,3,4,4a,5,9b-hexahydro-1H-pyrido[4,3-b]indole dihydrochloride], the “Stereotypy Intensity” value is recorded as 0 in [9] (1.0 mg/kg i.p.), 0 in [9] (2.0 mg/kg i.p.), 0 in data set [9] (5.0 mg/kg i.p.) and “--” in data set [9] (10.0 mg/kg i.p.). Moreover, the “Stereotypy Termination” value in data set [9] (1.0 mg/kg i.p.), in data set [9] (2.0 mg/kg i.p.), in data set [9] (5.0 mg/kg i.p.) and in data set [9] (10.0 mg/kg i.p.) was 0 each time.
With `Cl.Cl.O=C(CCCN1CCC2Nc3ccccc3C2C1)c1ccc(F)cc1` (stereo not shown) [compound 2, 2-[γ-(p-Fluorobenzoyl)propyl]-2,3,4,4a,5,9b-hexahydro-1H-pyrido[4,3-b]indole dihydrochloride], the “Stereotypy Intensity” value in [9] (1.0 mg/kg i.p.) was 0; in data set [9] (2.0 mg/kg i.p.), 0; in data set [9] (5.0 mg/kg i.p.), 0; in data set [9] (10.0 mg/kg i.p.) it was “-”. In addition, the “Stereotypy Termination” value in [9] (1.0 mg/kg i.p.), in data set [9] (2.0 mg/kg i.p.), in [9] (5.0 mg/kg i.p.) and in [9] (10.0 mg/kg i.p.) was 0 each time.
For the molecule `O=C(CCCN1CCC(O)(c2ccc(Cl)cc2)CC1)c1ccc(F)cc1` [Haloperidol], the “Stereotypy Intensity” value in [9] (0.1 mg/kg i.p.) is 0; in data set [9] (0.2 mg/kg i.p.), “-”; in [9] (0.5 mg/kg i.p.), “-- -”; in [9] (1.0 mg/kg i.p.), “---”. For the same molecule, the “Stereotypy Termination” value in data set [9] (0.1 mg/kg i.p.) is listed as “-”; in data set [9] (0.2 mg/kg i.p.) it was “--”; in data set [9] (0.5 mg/kg i.p.) it was “--”; in [9] (1.0 mg/kg i.p.), “--”.
